Values quoted from earlier work, collected in paper PMC9798770 (ACS Omega, 2022).

Test system: SARS-CoV-2

| SMILES | EC50 (read-out: EC50, antiviral activity) [µM] | antiviral activity compared with GRL0617 |
| --- | --- | --- |
| Cc1ccc(N)cc1C(=O)N[C@H](C)c1cccc2ccccc12 [GRL0617] | ~20 |  |
| C[C@H](c1cccc2ccccc12)N(C)Cc1ccc(O)cc1 [Jun9-72-2] |  | higher |
